Assay results published in ChEMBL document CHEMBL1141731, “Bioactive pyridoacridine alkaloids from the micronesian sponge Oceanapia sp” (J Nat Prod, 1998).
Values after ≈ are worked out from the molar mass of the structure shown. Active and inactive are the calls of the source. The rule behind the calls is not given here.

Columns and labels:
[1] = species: Rattus norvegicus; test: (§1) Displacement of [3H]diazepam from benzodiazepine binding site of GABAA receptor in rat brain cortical membrane; assay type: cell membranes
[2] = test system: HeLa; test: Cytotoxicity against human HeLa cells assessed as incorporation of [3H]thymidine incorporation; assay type: functional, cell-based
[3] = test system: Bacillus subtilis; test: Antimicrobial activities activity against Bacillus subtilis 168 at 100ug/disk after 24 hrs by agar plate diffusion assay; assay type: functional, organism-based; details: subsp. subtilis str. 168
[4] = test system: Escherichia coli; test: Antimicrobial activities activity against Escherichia coli ATCC 25922 at 100ug/disk after 24 hrs by agar plate diffusion assay; assay type: functional, organism-based
[5] = test system: Artemia salina; test: Toxicity against Artemia salina at upto 100 ug/mL after 24 hrs; assay type: organism-based; details: in vivo
[6] = test system: Cladosporium cucumerinum; test: Fungicidal activity against Cladosporium cucumerinum; assay type: functional, organism-based
[7] = test system: MONO-MAC-6; test: Cytotoxicity against human MONO-MAC-6 cells assessed as incorporation of [3H]thymidine incorporation; assay type: functional, cell-based
[8] = target: Adenosine receptor A2a (Rattus norvegicus) (UniProt P30543); test: Displacement of [3H]CGS21680 from adenosine A2A receptor in rat brain striatal membrane at 100 uM; assay type: cell membranes
[9] = target: T1, Adenosine receptor A1 (Rattus norvegicus) (UniProt P25099); test: Displacement of [3H]CHA from adenosine A1 receptor in rat brain cortical membrane at 100 uM; assay type: cell membranes
T1 sequence (whole entry): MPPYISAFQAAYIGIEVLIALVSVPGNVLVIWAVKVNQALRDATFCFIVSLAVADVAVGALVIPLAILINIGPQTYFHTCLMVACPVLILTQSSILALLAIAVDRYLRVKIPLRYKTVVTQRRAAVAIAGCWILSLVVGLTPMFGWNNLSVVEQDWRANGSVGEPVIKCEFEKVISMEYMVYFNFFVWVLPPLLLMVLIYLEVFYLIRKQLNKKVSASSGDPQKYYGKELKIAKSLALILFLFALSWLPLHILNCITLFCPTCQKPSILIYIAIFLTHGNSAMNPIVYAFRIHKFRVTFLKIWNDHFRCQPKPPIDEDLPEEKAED

[10] = species: Rattus norvegicus; test: Displacement of [3H]diazepam from benzodiazepine binding site of GABAA receptor in rat brain cortical membrane at 25 uM; assay type: cell membranes
[11] = test system: Spodoptera littoralis; test: Insecticidal activity against Spodoptera littoralis larvae with artificial diet assessed survival after 6 days; assay type: functional; details: 144 h
[12] = as §1; assay type: cell membranes
[13] = target: T1, Adenosine receptor A1 (Rattus norvegicus); test: Displacement of [3H]CHA from adenosine A1 receptor in rat brain cortical membrane at 25 uM; assay type: cell membranes
[14] = Toxicity against Artemia salina after 24 hrs; assay type: organism-based; details: in vivo
[15] = target: Adenosine receptor A2a (Rattus norvegicus) (UniProt P30543); test: Displacement of [3H]CGS21680 from adenosine A2A receptor in rat brain striatal membrane at 25 uM; assay type: cell membranes
[16] = target: T2, Adenosine receptor A1 (Rattus norvegicus, UniProt P25099); test: Displacement of [3H]CHA from adenosine A1 receptor in rat brain cortical membrane; assay type: cell membranes
T2 sequence (P25099 whole entry): T1 sequence (whole entry)

[17] = target: Adenosine receptor A2a (Rattus norvegicus, UniProt P30543); test: Displacement of [3H]CGS21680 from adenosine A2A receptor in rat brain striatal membrane; assay type: cell membranes
Sequence of Adenosine receptor A2a (P30543 whole entry): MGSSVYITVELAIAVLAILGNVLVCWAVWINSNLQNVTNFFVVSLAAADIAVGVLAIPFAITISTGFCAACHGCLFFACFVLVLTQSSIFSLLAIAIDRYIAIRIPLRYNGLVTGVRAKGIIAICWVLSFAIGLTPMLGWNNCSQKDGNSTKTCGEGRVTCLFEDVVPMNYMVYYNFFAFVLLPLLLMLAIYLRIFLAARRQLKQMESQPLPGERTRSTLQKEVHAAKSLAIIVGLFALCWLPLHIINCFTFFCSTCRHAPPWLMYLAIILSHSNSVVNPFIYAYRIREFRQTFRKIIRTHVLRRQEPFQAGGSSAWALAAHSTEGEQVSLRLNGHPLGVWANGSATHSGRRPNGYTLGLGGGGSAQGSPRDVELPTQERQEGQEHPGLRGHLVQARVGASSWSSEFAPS

Sequence of Adenosine receptor A2a (Rattus norvegicus) (P30543 whole entry): as above

For `NCCc1c2c3c(ccnc3c3ncsc13)-c1ccccc1N2`, the Activity [1] was “Active”, the IC50 [2] was 1.2 µg/mL (≈ 3.77 µM) and the Activity [3] was “inactive”. The Activity [4] was “inactive”, the Activity [5] was “Non-toxic” and the Activity [6] was “inactive”. The IC50 [7] was 2 µg/mL (≈ 6.28 µM), the Activity [8] was 46% and the Activity [9] was 36%. The Activity [10] was 30% and the EC50 ([11]; read-out: ED50 (the source's name)) was 141 µg/mL (≈ 443 µM).
In the case of `Cn1c(=O)c2c(ncn2C)n(C)c1=O` [CAFFEINE], the Ki [12] is reported as 376 µM.
With `CCC(=O)NCCc1c2c3c(ccnc3c3ncsc13)-c1ccccc1N2` [KUANONIAMINE C] the Activity [1] was “Active”, the IC50 [2] was 5.1 µg/mL (≈ 13.6 µM) and the Activity [3] was “inactive”. For the same molecule, the Activity [4] was “inactive”, the Activity [6] was “inactive” and the Activity [13] was 34%. It also gave an IC50 [7] of 1.2 µg/mL (≈ 3.2 µM), an LC50 at 24 h [14] of 37 µg/mL (≈ 98.8 µM) and an Activity [15] of 43%. It also gave an Activity [10] of 39% and an LC50 [11] of 156 µg/mL (≈ 417 µM).
In the case of `CC(=O)NCCc1c2c3c(ccnc3c3ncsc13)-c1ccccc1N2` [KUANONIAMINE D], the Activity [1] is reported as “Active”, the IC50 [2] is reported as 1.4 µg/mL (≈ 3.88 µM) and the Activity [3] is reported as “inactive”. The Activity [4] was “inactive”, the Activity [6] was “inactive” and the Ki [16] was 2.94 µM. It also gave an Activity [13] of 68%, a Ki [17] of 13.7 µM and an IC50 [7] of 0.8 µg/mL (≈ 2.22 µM). The LC50 at 24 h [14] was 19 µg/mL (≈ 52.7 µM), the Activity [15] was 56% and the Activity [10] was 32%. For the same molecule, the LC50 [11] was 59 µg/mL (≈ 164 µM).
